Assay results: patent EP0624588A1, “New quinoline derivatives with pharmacological activity” (J. URIACH & CIA. S.A., priority 1993, dated 1994)

How the values were obtained:
[1] = tested on: platelet aggregation induced by PAF; experiment: Inhibition of platelet aggregation induced by PAF; format: cell-based, New Zealand albino rabbits; conditions: Oryctolagus cuniculus; rabbit platelet rich plasma, PAF (C₁₈) 15 nM, Born nephelometric technique; read-out: IC₅₀
Method: Blood is obtained by cardiac puncture of male New Zealand albino rabbits (b.w. 2-2.5 Kg) and coagulation is prevented by adding 1 part of 3.16% sodium citrate dihydrate in 9 parts of blood. Platelet rich plasma (PRP) is prepared by centrifuging the blood at 250xg for 10 min. at 4°C and then it is diluted with platelet poor plasma (PPP) obtained by further centrifuging at 3000xg for 10 min. The platelet count is adjusted to 3x10⁵/mm³. Platelet aggregation induced by PAF (C₁₈, prepared in our laboratory) (15 nM) is determined by the Born nephelometric technique (J. Physiol., 1962, 162, 67) using an aggregometer Chrono-log 500. The activities of the inhibitors are expressed as the IC₅₀ value, that is to say the concentration of drug needed to inhibit platelet aggregation by 50%.

[2] = tested on: LTB₄ production by human granulocytes (HL-60 cells); experiment: Inhibition of LTB4 production by human granulocytes; format: cell-based; conditions: differentiated HL-60 cells stimulated by calcium ionophore A23187 (5 x 10⁻⁶M), LTB₄ by EIA, read-out: % inh. of LTB₄ production (at 5 µM)
Method: Human promyelocytes (HL-60 cells) are grown in a RPMI 1640 medium suplemented with 20% heat-inactivated fetal bovine serum, 50 U/mL penicillin and 50 µg/mL streptomycin under an atmosphere of 5% CO₂ at 37°C. Cells are exposed to 1.3% DMSO for 5 days in order to differentiate them into mature granulocytes and then are washed and resuspended in Dubelcco's phosphate-buffered saline at 10⁶ cells/mL. HL-60 (10⁶ cells/mL) are incubated for 15 min at 37°C in the presence or absence (vehicle only) of test compound. Cells are then stimulated by calcium ionophore A23187 (5 x 10⁻⁶M) for 15 min. LTB₄ secreted into the external medium is measured by EIA (enzymo immunoassay) using a commercially available LTB₄-EIA kit. Results are expressed as the percent inhibition of LTB₄ production as compared to controls.

Compound	IC50 [1]	inhibition at 5 µM [2]
Cc1nnc2n1-c1sc3c(c1C(c1ccccc1Cl)=NC2C)CCN(C(=O)c1cccc(OCc2ccc4ccccc4n2)c1)C3 (stereo not drawn) [Compound 1, 6-(2-Chlorophenyl)-1,4-dimethyl-9-[3-(2-quinolylmethoxy)benzoyl]-7,8,9,10-tetrahydro-4H-pyrido[4',3': 4,5]thieno[3,2-f] [1,2,4]triazolo[4,3-a] [1,4]diazepine]	32 nM	72%
Cc1nnc2n1-c1sc3c(c1C(c1ccccc1Cl)=NC2C)CCN(C(=O)Cc1ccc(OCc2ccc4ccccc4n2)cc1)C3 (stereo not drawn) [Compound 2, 6-(2-Chlorophenyl)-1,4-dimethyl-9-[4-(2-quinolylmethoxy)phenylacetyl]-7,8,9,10-tetrahydro-4H-pyrido[4',3': 4,5]thieno[3,2-f] [1,2,4]triazolo[4,3-a] [1,4]diazepine]	16 nM	–
